Experimental findings from a melting point compilation (Tetko et al.; mined from patent text by program, amines drawn as free bases though some values may be those of a salt) are described below.

The melting point is the temperature, or range, at which the solid turns liquid. The molecule `O=C(O)c1cccc(Oc2ccc(C(=O)c3ccc(F)cc3)cc2)c1` gave a melting point of 158 to 160 °C. As for `CC1=C(Cc2ccc(OC(F)(F)F)cc2)C(=O)c2ccccc2C1=O`, the figure is 64 to 65 °C; as for `O=S1(=O)c2cccc3cccc(c23)N1CC(Br)CN1CCN(c2ccc(F)cc2)CC1` (centres undefined), 102 °C. For the molecule `COc1cc(C=O)cc(OC)c1OC1OC(COC(C)=O)C(OC(C)=O)C(OC(C)=O)C1NC(C)=O` (centres undefined), the melting point lay in the range of 222 to 225 °C. As for `O=S(=O)(Nc1ccc(Cl)cc1-c1nc2ccccc2[nH]1)c1ccc(Cl)cc1`, the figure is 225 to 228 °C. In the case of `Cn1c(C(F)(F)F)cc(C#N)c1-c1ccc(Cl)cc1` it was 130 °C; in that of `Cc1ccc(S(=O)(=O)NC(=O)N2CC2C#N)cc1` (centres undefined), 156 to 158 °C; in that of `CC(=O)N(C)c1cnc2ccc(Cl)cc2c1-c1ccccc1`, 268 to 270 °C.

The molecule `Cn1nc(-c2ccccc2)c(N=O)c1N` showed a melting point of 230 to 231 °C.

As to `CN(C)C1CCN(c2cc3ccccc3c(=O)[nH]2)C1` (centres undefined), the melting point lay in the range of 233 to 234 °C.

Regarding `CCNc1cc(Cl)c(C(F)(F)F)cc1[N+](=O)[O-]`, the melting point lay within 92.5 to 94 °C.

`CCC(C)n1nnc2c(N=C=S)cccc21` (centres undefined) gave a melting point of 77 to 78 °C. As for `CN(C)C=Cc1[nH]c(=O)ccc1C(=O)c1ccc(Br)cc1`, the figure is 265 to 268 °C; as for `O=C(Nc1ccc2c(c1)CCC(CCN1CCCC1)=C2)c1ccc(-c2ccc(Cl)cc2)cc1`, 207 to 209 °C. In the case of `CCCCC1COC(c2ccc(OC(F)(F)F)cc2)OC1` (centres undefined) it was 23 °C; in that of `O=Cc1ccc2c(c1)OCC(=O)N2`, 178 to 180 °C.

As to `CCCCc1oc2ccccc2c1Cc1cc(Br)c(O[C@H](Cc2ccccc2)C(=O)O)c(Br)c1`, the melting point was in the range of 225 to 226 °C.

On to `CCN1CCN(CC)c2cc(Nc3nc(Cl)ncc3Cl)ccc2C1=O`, for which the melting point was in the range of 71 to 74 °C.

For the molecule `CC(C)Oc1nc(N)nc2c1ncn2C1C=CC(CO)C1` (centres undefined), the melting point is 188 to 191 °C. As for `CC(=O)Nc1nc(C(N)=O)cs1`, the melting point was more than 250 °C. In the case of `Cc1ccnc(C(=O)c2sc(Cl)nc2C)c1` it was 115 to 116 °C; in that of `COc1cc(CCCCN(C)Cc2ccc(OC)c(OC)c2)ccc1NC(=O)c1cccc2c(=O)c3cccc(OC)c3[nH]c12`, 114 to 115 °C; in that of `COc1ccccc1C(=O)NCCc1ccc(-c2ccc(OC(C)(C)C(=O)O)cc2)cc1`, 133 °C. `CCCCOC(=O)COc1ccc(C(=O)Nc2ccc(C)cc2Sc2ccccc2-c2nnn[nH]2)cc1` returned a melting point of 161 to 162 °C. As for `COC(=O)c1[nH]c2ccc(C)cc2c1Sc1ccc(Cl)cc1`, the figure is 230 to 233 °C; as for `CCCCCCCCCCCCc1ccc(C(OC(C)=O)C(COC(C)=O)NC(C)=O)s1` (centres undefined), 105 to 107 °C; as for `O=C(NCc1ccc2c(c1)OCO2)c1ccc2[nH]c(=O)n(Cc3ccc(Cl)cc3)c(=O)c2c1`, 290 °C.

Turning to `CCCc1c(OCCCCCCc2cccc(OCC(=O)O)c2CCC(=O)O)ccc2c1OCCC2=O`, the melting point lay within 127 to 129 °C.

The molecule `COc1cc2ncc(NC(=O)C=Cc3cc(OC)c(OC(C)=O)c(OC)c3)c(-c3ccccc3)c2cc1OC` gave a melting point of 256 to 257 °C. As for `Cc1nn(C)c2nc(N)nc(N)c2c1=O`, the figure is more than 275 °C; as for `CC1Cc2cc3c(cc2C(c2ccc(NC=O)cc2)=NN1C=O)OCO3` (centres undefined), 193 to 195 °C; as for `CCCc1nc2c(N)nc3ccccc3c2n1CCOCCCS(C)=O` (centres undefined), 148 to 151 °C. As for `O=C(NCCOCc1cccc(Cl)c1)c1c(Cl)cccc1Cl`, the figure is 70 to 72 °C; as for `Cc1c(C)c2c(c(C)c1N)CC(C)(CN1CCCCC1)O2` (centres undefined), 60 to 61 °C. As for `COC(=O)CC=C(CC(C)C)C(=O)O`, the figure is 40 to 45 °C; as for `O=C1CCCCC1c1cccnc1` (centres undefined), 78 to 80 °C; as for `CC(C)OP(=O)(Cc1c(C(C)(C)C)cc(O)cc1C(C)(C)C)OC(C)C`, 100 °C.

Molecule `CCCCN(Cc1ccccc1)C(=O)Nc1cccc(Cl)c1O` yielded a melting point of 59 to 62 °C.

Regarding `COC(=O)c1cccc2nc(N3CCOCC3)n(Cc3ccc(-c4ccccc4-c4nnn[nH]4)cc3)c12`, the melting point was 163 to 167 °C. As for `Cc1cc(-c2cc(=O)c3cccnc3o2)cc(C)c1OCC(=O)O`, the figure is 280 °C; as for `CC(C)Cc1nc(-c2cccnc2)c[nH]c1=O`, 195 to 196 °C.

Turning to `COc1ccc(C=CC(=O)c2ccc(OCC(O)CN3CCN(c4ccccc4)CC3)cc2)cc1OC` (centres undefined), the melting point is 126 to 127 °C.

As to `CCCOc1ccc2c(c1)C(c1ccccc1OCCC)C(C(=O)O)C2c1ccc2c(c1)OCO2` (centres undefined), the melting point is 179 to 180 °C.

The molecule `CCOC(=O)c1c(C(F)(F)F)nc(C(F)(F)Cl)c(C(=O)OC)c1N(CC)CC` registered a melting point of 31.5 to 33 °C. As for `CC(=O)COC1CC2C3CCC4=CC(=O)CCC4(C)C3(F)C(O)CC2(C)C1(O)C(=O)CO` (centres undefined), the figure is 203 to 208 °C. `CCCCc1c(/C=C/C(=O)Oc2ccc([N+](=O)[O-])cc2)cc(OC)c2ccc(OC)cc12` gave a melting point of 144 to 146 °C.

Take `CN(c1cccc2cc(C3=NCC4(CCN(Cc5nccn5C)CC4)S3)[nH]c12)S(=O)(=O)c1cccs1`: the melting point was found to be 103 °C. As for `CSc1ccc(-c2cc3ncnc(Nc4ccc5[nH]ccc5c4)c3s2)cc1`, the figure is 163 to 178 °C. As to `CC(C)NC1=NS(=O)(=O)c2cc(Cl)cc(N)c2N1`, the melting point was more than 230 °C. Turning to `CSc1ccc2c3c(cccc13)C(=O)N2`, the melting point lay in the range of 167 to 172 °C. `CCOC(=O)C1=NN(c2ccc(Cl)cc2)C(c2ccc(Cl)cc2)C1` (centres undefined) yielded a melting point of 128 to 130 °C. For `Cc1cc(N2CCNCC2)ccc1NS(C)(=O)=O`, the melting point lay within 79 to 81 °C.

Molecule `O=C1NC(=O)C(c2cn3c4c(cccc24)CCC3)C1c1ccc(O)cc1` (centres undefined) gave a melting point of 105 to 107 °C. As for `COc1ccc2[nH]c(SCc3ncc(C)c(N(C)C)c3Cl)nc2c1`, the figure is 109 to 110 °C; as for `COC(=O)Nc1cccc2c1C(=O)C1(O)c3ccc(C(C)C)cc3OC21O` (centres undefined), 96 to 99 °C; as for `N#CSCC(I)=C(I)CSC#N`, 190 °C. The molecule `N#Cc1c(N2CCCCC2)cc(-c2ccc(F)cc2)c2c1-c1ccccc1C2=O` registered a melting point of 180 to 182 °C. Molecule `CC(=O)Nc1ccc2c(c1)S(=O)(=O)N(CCCCN1CCN(c3ncccn3)CC1)C2=O` gave a melting point of 162 °C. `COC(=O)c1ccc(Cl)c(CSC)c1SC` yielded a melting point of 47.1 °C. With `CC1(C)CCC(C)(C)c2cc(CO)ccc21`, the melting point lay within 74 to 75 °C. With `CS(=O)(=O)c1ccc(-c2cc3c(cc2C(=O)c2cc(F)cc(F)c2)OCCO3)cc1`, the melting point was in the range of 191 to 193 °C. The molecule `CCOC(=O)C(=O)Nc1cccc(OC)c1C(N)=O` yielded a melting point of 170 to 173 °C. Molecule `CCOc1cnc(N[N+](=O)[O-])[nH]c1=O` came in with a melting point of 189 to 192 °C. Consider `CCCCCCCCCCCCCCCC1CCCC(c2ccc(O)cc2)(c2ccc(O)cc2)C1` (centres undefined), for which the melting point worked out at 104 °C.
